≈ marks a conversion by molar mass, not a printed value.
Tested on: Trichosporon cutaneum IFO 1189
Assay: Antifungal activity, minimum growth inhibition concentration (MIC), agar plate dilution method
Format: cell-based
Settings: for MIC: Cutaneotrichosporon cutaneum, IFO1189, 48 h
[1] = agar plate dilution method, Trichosporon cutaneum IFO 1189, culture at 37° C. for 2 days, yeast-nitrogen base with 1% glucose

| MIC [1] [µg/mL] | MIC (minimum growth inhibition concentration) [1] [µg/mL] | SMILES | antifungal activity (in words) (fungi against which BE-49385 A does not show an antifungal activity) |
| --- | --- | --- | --- |
| 12.5 (≈ 23 µM) |  | C=C1C2CC3C(C(C)C)C(OC(=O)NC4CCCCC4)CC3(C)CC2C(C)=CCC2C(C)OC(=O)C(O)C12O (stereo not shown) [Compound 46, 1,13a-dihydroxy-11-isopropyl-4,7,8a-trimethyl-13-methylene-2-oxo-1,2,4,4a,5,7a,8,8a,9,10,11,11a,12,12a,13,13a-hexadecahydroindeno[5',6':4,5]cycloocta[1,2-c]pyran-10-yl N-cyclohexylcarbamate] |  |
| 12.5 (≈ 21.8 µM) |  | C=C1C2CC3C(C(C)C)C(NC(=O)CC(C)(O)CC(C)CC)CC3(C)CC2C(C)=CCC2C(C)OC(=O)C(O)C12O (stereo not shown) [Compound 54, N'-(1,13a-dihydroxy-11-isopropyl-4,7,8a-trimethyl-13-methylene-2-oxo-1,2,4,4a,5,7a,8,8a,9,10,11,11a,12,12a,13,13a-hexadecahydroindeno[5',6': 4,5]cycloocta [1,2-c]pyran-10-yl)-3-hydroxy-3,5-dimethylheptanamide] |  |
| ≥ 100 |  | C[C@@H]1[C@H](O)[C@@H](C)/C=C/C=C/C=C/C=C/C=C/C=C/C=C/[C@H](O[C@@H]2O[C@H](C)[C@@H](O)[C@H](N)[C@@H]2O)C[C@@H]2O[C@](O)(C[C@@H](O)C[C@@H](O)[C@H](O)CC[C@@H](O)C[C@@H](O)CC(=O)O[C@H]1C)C[C@H](O)[C@H]2C(=O)O [amphotericin B, reference compound] |  |
| 6.25 (≈ 10.6 µM) |  | C=C1C2CC3C(C(C)C)C(NC(=O)Cc4csc5ccccc45)CC3(C)CC2C(C)=CCC2C(C)OC(=O)C(O)C12O (stereo not shown) [Compound 64, N'-(1,13a-dihydroxy-11-isopropyl-4,7,8a-trimethyl-13-methylene-2-oxo-1,2,4,4a,5,7a,8,8a,9,10,11,11a,12,12a,13,13a-hexadecahydroindeno[5',6': 4,5]cycloocta[1,2-c]pyran-10-yl)-3-benzo[b]thienylacetamide] |  |
| 6.25 (≈ 12.4 µM) |  | C=C1C2CC3C(C(C)C)C(OC(=O)CC(C)C)CC3(C)CC2C(C)=CCC2C(C)OC(=O)C(O)C12O (stereo not shown) [Compound 9, 1,13a-dihydroxy-11-isopropyl-4,7,8a-trimethyl-13-methylene-2-oxo-1,2,4,4a,5,7a,8,8a,9,10,11,11a,12,12a,13,13a-hexadecahydroindeno[5',6':4,5]cycloocta[1,2-c]pyran-10-yl 3-methylbutanoate] |  |
| 3.13 (≈ 5.82 µM) |  | C=C1C2CC3C(C(C)C)C(OC(=O)Nc4ccccc4)CC3(C)CC2C(C)=CCC2C(C)OC(=O)C(O)C12O (stereo not shown) [Compound 43, 1,13a-dihydroxy-11-isopropyl-4,7,8a-trimethyl-13-methylene-2-oxo-1,2,4,4a,5,7a,8,8a,9,11a,12,12a,13,13a-hexadecahydroindeno[5',6':4,5]cycloocta [1,2-c]pyran-10-yl N-phenylcarbamate] |  |
| 6.25 (≈ 11 µM) |  | C=C1C2CC3C(C(C)C)C(NC(=O)Cc4ccc(Cl)cc4)CC3(C)CC2C(C)=CCC2C(C)OC(=O)C(O)C12O (stereo not shown) [Compound 65, N'-(1,13a-dihydroxy-11-isopropyl-4,7,8a-trimethyl-13-methylene-2-oxo-1,2,4,4a,5,7a,8,8a,9,10,11,11a,12,12a,13,13a-hexadecahydroindeno[5',6': 4,5]cycloocta[1,2-c]pyran-10-yl)-4-chlorophenylacetamide] |  |
| 3.13 (≈ 5.61 µM) |  | C=C1C2CC3C(C(C)C)C(OC(=O)c4ccc(Cl)nc4)CC3(C)CC2C(C)=CCC2C(C)OC(=O)C(O)C12O (stereo not shown) [Compound 26, 1,13a-dihydroxy-11-isopropyl-4,7,8a-trimethyl-13-methylene-2-oxo-1,2,4,4a,5,7a,8,8a,9,10,11,11a,12,12a,13,13a-hexadecahydroindeno[5',6':4,5]cycloocta[1,2-c]pyran-10-yl 6-chloronicotinate] |  |
| 12.5 (≈ 23.1 µM) |  | C=C1C2CC3C(C(C)C)C(OC(=O)c4ccc(F)cc4)CC3(C)CC2C(C)=CCC2C(C)OC(=O)C(O)C12O (stereo not shown) [Compound 23, 1,13a-dihydroxy-11-isopropyl-4,7,8a-trimethyl-13-methylene-2-oxo-1,2,4,4a,5,7a,8,8a,9,10,11,11a,12,12a,13,13a-hexadecahydroindeno[5',6':4,5]cycloocta[1,2-c]pyran-10-yl 4-fluorobenzoate] |  |
| 6.25 (≈ 12.8 µM) |  | C=C1C2CC3C(C(C)C)C(OC(=O)CCC)CC3(C)CC2C(C)=CCC2C(C)OC(=O)C(O)C12O (stereo not shown) [Compound 5, 1,13a-dihydroxy-11-isopropyl-4,7,8a-trimethyl-13-methylene-2-oxo-1,2,4,4a,5,7a,8,8a,9,10,11,11a,12,12a,13,13a-hexadecahydroindeno[5',6':4,5]cycloocta[1,2-c]pyran-10-yl butanoate] |  |
| 6.25 (≈ 11.3 µM) |  | C=C1C2CC3C(C(C)C)C(OC(=O)NCc4ccccc4)CC3(C)CC2C(C)=CCC2C(C)OC(=O)C(O)C12O (stereo not shown) [Compound 40, 1,13a-dihydroxy-11-isopropyl-4,7,8a-trimethyl-13-methylene-2-oxo-1,2,4,4a,5,7a,8,8a,9,10,11,11a,12,12a,13,13a-hexadecahydroindeno[5',6':4,5]cycloocta[1,2-c]pyran-10-yl N-benzylcarbamate] |  |
| 12.5 (≈ 21.4 µM) |  | C=C1C2CC3C(C(C)C)C(OS(=O)(=O)/C=C/c4ccccc4)CC3(C)CC2C(C)=CCC2C(C)OC(=O)C(O)C12O (stereo not shown) [Compound 31, 1,13a-dihydroxy-11-isopropyl-4,7,8a-trimethyl-13-methylene-2-oxo-1,2,4,4a,5,7a,8,8a,9,10,11,11a,12,12a,13,13a-hexadecahydroindeno[5',6':4,5]cycloocta[1,2-c]pyran-10-yl (E)-2-phenyl-1-ethene-1sulfonate] |  |
| 6.25 (≈ 12.8 µM) |  | C=C1C2CC3C(C(C)C)C(OC(=O)NCC)CC3(C)CC2C(C)=CCC2C(C)OC(=O)C(O)C12O (stereo not shown) [Compound 33, 1,13a-dihydroxy-11-isopropyl-4,7,8a-trimethyl-13-methylene-2-oxo-1,2,4,4a,5,7a,8,8a,9,10,11,11a,12,12a,13,13a-hexadecahydroindeno[5',6':4,5]cycloocta[1,2-c]pyran-10-yl N-ethylcarbamate] |  |
|  | ≥ 100 | C=C1C2CC3C(C(C)C)C(OC(=O)CC(C)(O)CC(C)CC)CC3(C)CC2C(C)=CCC2C(C)OC(=O)C(O)C12O (stereo not shown) [BE-49385 A, reference compound] | does not show an antifungal activity |
| 6.25 |  | C=C1C2CC3C(C(C)C)C(OS(=O)(=O)CCCC)CC3(C)CC2C(C)=CCC2C(C)OC(=O)C(O)C12O (stereo not shown) [Compound 32, 1,13a-dihydroxy-11-isopropyl-4,7,8a-trimethyl-13-methylene-2-oxo-1,2,4,4a,5,7a,8,8a,9,10,11,11a,12,12a,13,13a-hexadecahydroindeno[5',6':4,5]cycloocta[1,2-c]pyran-10-yl 1butanesulfonate] |  |
| 12.5 (≈ 22.9 µM) |  | C=C1C2CC3C(C(C)C)C(OC(=O)NC4CCCCO4)CC3(C)CC2C(C)=CCC2C(C)OC(=O)C(O)C12O (stereo not shown) [Compound 42, 1,13a-dihydroxy-11-isopropyl-4,7,8a-trimethyl-13-methylene-2-oxo-1,2,4,4a,5,7a,8,8a,9,10,11,11a,12,12a,13,13a-hexadecahydroindeno[5',6':4,5]cycloocta[1,2-c]pyran-10-yl N-tetrahydro-2H-pyran-2-ylcarbamate] |  |
| 12.5 (≈ 23.5 µM) |  | C=C1C2CC3C(C(C)C)C(OC(=O)C(O)CCCC)CC3(C)CC2C(C)=CCC2C(C)OC(=O)C(O)C12O (stereo not shown) [Compound 14, 1,13a-dihydroxy-11-isopropyl-4,7,8a-trimethyl-13-methylene-2-oxo-1,2,4,4a,5,7a,8,8a,9,10,11,11a,12,12a,13,13a-hexadecahydroindeno[5',6':4,5]cycloocta[1,2-c]pyran-10-yl 2-hydroxyhexanoate] |  |
| 3.13 (≈ 5.63 µM) |  | C=C1C2CC3C(C(C)C)C(OC(=O)Nc4ccc(F)cc4)CC3(C)CC2C(C)=CCC2C(C)OC(=O)C(O)C12O (stereo not shown) [Compound 39, 1,13a-dihydroxy-11-isopropyl-4,7,8a-trimethyl-13-methylene-2-oxo-1,2,4,4a,5,7a,8,8a,9,10,11,11a,12,12a,13,13a-hexadecahydroindeno[5',6':4,5]cycloocta[1,2-c]pyran-10-yl N-(4-fluorophenyl)carbamate] |  |
